Laboratory results taken from publication PMC8325119, “A Novel Class of Functionalized Synthetic Fluoroquinolones with Dual Antiproliferative - Antimicrobial Capacities” (Asian Pacific Journal of Cancer Prevention : APJCP, 2021).
Converted amounts (≈) assume the structure as drawn. “And” between values parts separate entries of the source, which are not always exact repeats. Equal entries are not always repeated. Where two headings read alike, the source gives them in different places.

Legend:
HELA cell line = experiment: SRB cytotoxicity assay, HELA cervical cancer cell line
Protocol: (§1) All reagents and chemicals of analytical grade were obtained from Sigma (Dorset, UK); unless stated otherwise. All chemicals, reagents and solvents (of analytical grade) were used directly without further purification. MCF7 cell line ATCC® HTB-22™, T47D cell line ATCC® HTB-133™, K562 cell line ATCC® CCL-243™, Panc1 cell line ATCC® CRL-1469™. A375.S2 cell line ATCC® CRL-1872™, A549 cell line ATCC® CCL-185™, HELA cell line ATCC® CCL-2™ were cultured in Dulbecco’s modified eagle’s medium (DMEM). (DMEM) containing foetal bovine serum (FBS) (Bio Whittaker, Verviers, Belgium), 4-(2-hydroxyethyl)-1-piperazine ethane sulfonic acid (HEPES) Buffer, L-glutamine, gentamicin, penicillin, and streptomycin sulphate (Sigma, St. Luis, MO, USA), trypsin, trypan blue, Ciprofloxacin HCl from Aarti drugs Ltd/India, was a kind gift from Pharma International Company- Amman; Fluconazole from Neopharma, United Arab Emirates, a kind gift from Pharmaceutical Research Unit, Amman; Trypon soya agar (TSA), trypon soya broth (TSB), sabouraud dextrose agar (SDA) were obtained from Liofilchem (Italy) or Oxoid LTD (Basingstoke, England), they were reconstituted and sterilized by autoclave at 121 °C for 15 min.
(§2) The cytotoxicity measurements were determined using Sulforhodamine B (SRB) colorimetric assay for cytotoxicity screening. The mechanism of reduction of cell viability was adopted as described previously (Arabiyat et al., 2016a,b; 2017; Alabsi et al., 2018; Jumah, 2018; AlShahrabi et al., 2020). Human periodontal ligament fibroblasts (PDL) are a primary normal cell culture for verification of selective cytotoxicity. […] Selectivity ratio as indicative factor of the safety of compounds was calculated by dividing IC50 of tested compound on normal fibroblasts by IC50 of the same compound on specific pathological cell line (Hoffman et al., 2011).

A375.S2 cell line = experiment: SRB cytotoxicity assay, A375.S2 melanoma cell line
Protocol: as §1, §2

MCF7 cell line = experiment: SRB cytotoxicity assay, MCF7 breast cancer cell line
Protocol: as §1, §2

K562 cell line = experiment: SRB cytotoxicity assay, K562 leukaemia cell line
Protocol: as §1, §2

PANC 1 cell line = experiment: SRB cytotoxicity assay, PANC 1 pancreatic cancer cell line
Protocol: as §1, §2

A549 cell line = experiment: SRB cytotoxicity assay, A549 lung cancer cell line
Protocol: as §1, §2

PDL Fibroblasts = experiment: SRB cytotoxicity on normal periodontal ligament fibroblasts, selective cytotoxicity; assay type: cell-based, Human; conditions: for IC50 / IC50 value PDL Fibroblasts: normal fibroblasts, SRB, 72 h, mean ± SD; for Selectivity index SI (K562): IC50 on PDL fibroblasts divided by IC50 on K562; for Selectivity index SI (HELA): IC50 on PDL fibroblasts divided by IC50 on HELA
Protocol: as §2

T47D cell line = experiment: cells; conditions: 72 h; for IC50: read-out: Cytotoxicity IC50 value, T47D cell line; for Cytotoxicity IC50 value, T47D cell line: value in brackets
Protocol: as §1, §2

[1] = Homo sapiens, HeLa, 72 h, read-out: Cytotoxicity IC50 value, HELA cell line, SRB, 72 h, 0.1-200 μg/mL range, mean ± SD, value in brackets
[2] = Homo sapiens, HeLa, 72 h, read-out: Cytotoxicity IC50 value, HELA cell line, SRB, 72 h, 0.1-200 μg/mL range, mean ± SD, NI = lack of cytotoxicity in range
[3] = Homo sapiens, A375-S2, 72 h, read-out: Cytotoxicity IC50 value, A375.S2 cell line
[4] = Homo sapiens, MCF7, 72 h, read-out: Cytotoxicity IC50 value, MCF7 cell line
[5] = Homo sapiens, K562, 72 h, read-out: Cytotoxicity IC50 value, K562 cell line, SRB, 72 h, 0.1-200 μg/mL range, mean ± SD, value in brackets
[6] = Homo sapiens, K562, 72 h, read-out: Cytotoxicity IC50 value, K562 cell line, SRB, 72 h, 0.1-200 μg/mL range, mean ± SD, NI = lack of cytotoxicity in range
[7] = Homo sapiens, PANC-1, 72 h, read-out: Cytotoxicity IC50 value, PANC 1 cell line
[8] = Homo sapiens, A549, 72 h, read-out: Cytotoxicity IC50 value, A549 cell line
[9] = Homo sapiens, Fibroblast, 0.1-200 μg/mL range, NI = lack of cytotoxicity in range
[10] = Homo sapiens, Fibroblast, value in brackets
[11] = 0.1-200 μg/mL range, NI = lack of cytotoxicity in range
[12] = SRB, 0.1-200 μg/mL range, mean ± SD
[13] = SRB, 0.1-200 μg/mL range, mean ± SD, NI = lack of cytotoxicity in range

Row | SMILES | IC50 (HELA cell line; [1]) | IC50 (HELA cell line; [2]) | IC50 (A375.S2 cell line; [3]) | IC50 (MCF7 cell line; [4]) | IC50 (K562 cell line; [5]) | IC50 (K562 cell line; [6]) | IC50 (PANC 1 cell line; [7]) | IC50 (A549 cell line; [8]) | IC50 (PDL Fibroblasts; [9]) | IC50 (PDL Fibroblasts; [10]) | Selectivity index SI (K562) (PDL Fibroblasts) | IC50 (T47D cell line; Homo sapiens, T47D) | other results
1 | CCn1cc(C(=O)O)c(=O)c2cc(F)c(Nc3ccc(OC)cc3OC)c(N)c21 [12c, 8-amino-7-(2,4-dimethoxy-phenylamino)-1-ethyl-6-fluoro-4-oxo-1,4-dihydro-quinoline-3-carboxylic acid] | 15.6 µg/mL | 38.8 ± 1.91 µM | 67.3 µM and 27 µg/mL | 101 µM and 40.4 µg/mL | 10.6 µg/mL | 26.4 ± 4.54 µM | 93.5 µM and 37.5 µg/mL | 40.9 µM and 16.4 µg/mL | 43.8 ± 6.21 µM | 17.6 µg/mL | 1.65 |  | 
2 | CCc1ccc(Nc2c(F)cc3c(=O)c(C(=O)O)cn(C4CC4)c3c2N)cc1 [4d, 8-Amino-1-cyclopropyl-6-fluoro-7-(4-ethyl-phenylamino)-4-oxo-1,4-dihydro-quinoline-3-carboxylic acid] | 51.7 µg/mL | 136 ± 4.58 µM | 47 µM and 17.9 µg/mL | 21.3 µM and 8.14 µg/mL | 15.9 µg/mL | 41.8 ± 4.98 µM | 65.3 µM and 24.9 µg/mL | 20.2 µM and 7.72 µg/mL | 50.4 ± 4.28 µM | 19.2 µg/mL |  | 53.7 µM and 20.5 µg/mL | Selectivity index SI (A562) (PDL Fibroblasts; IC50 on PDL fibroblasts divided by IC50 on the cell line printed as A562): 2.49
3 | CCOC(=O)c1cn(C2CC2)c2c([N+](=O)[O-])c(Cl)c(F)cc2c1=O [1E] | 43.3 µg/mL | 133 ± 4.78 µM | 271 µM and 121 µg/mL | 220 µM and 71.9 µg/mL | 32.4 µg/mL | 99.1 ± 7.5 µM | 79.3 µM and 25.9 µg/mL | 447 µM and 200 µg/mL |  |  |  | 108 µM and 35.4 µg/mL | 
4 | CCCCc1ccc(Nc2c(F)cc3c(=O)c(C(=O)O)cn(C4CC4)c3c2[N+](=O)[O-])cc1 [3e, 1-cyclopropyl-6-fluoro-7-(4-butyl-phenylamino)-8-nitro-4-oxo-1,4-dihydro-quinoline-3-carboxylic acid] | 498 µg/mL | 1130 ± 65.6 µM | 144 µM and 63.5 µg/mL | 428 µM and 188 µg/mL | 0.71 µg/mL | 1.62 ± 0.16 µM | 12.2 µM and 5.38 µg/mL | 64.2 µM and 28.2 µg/mL | 711 ± 44.9 µM | 313 µg/mL | 439.01 | 406 µM and 178 µg/mL | 
5 | COc1ccc(Nc2c(F)cc3c(=O)c(C(=O)O)cn(C4CC4)c3c2[N+](=O)[O-])c(OC)c1 [3g, 1-cyclopropyl-7-(2,4-dimethoxy-phenylamino)-6-fluoro-8-nitro-4-oxo-1,4-dihydro-quinoline-3-carboxylic acid] |  | > 200 µg/mL | > 200 µg/mL | > 200 µg/mL |  | > 200 µg/mL | > 200 µg/mL | > 200 µg/mL | > 200 µg/mL |  |  | > 200 µg/mL | 
6 | COc1ccccc1Nc1c(F)cc2c(=O)c(C(=O)O)cn(C3CC3)c2c1[N+](=O)[O-] [3a, 1-cyclopropyl-6-fluoro-7-(2-methoxy-phenylamino)-8-nitro-4-oxo-1,4-dihydro-quinoline-3-carboxylic acid] |  |  |  |  |  |  |  |  | 184 ± 3.69 µM | 76 µg/mL |  | > 200 µg/mL | Selectivity index SI (MCF7) (PDL Fibroblasts; IC50 on PDL fibroblasts divided by IC50 on MCF7): 2.71
7 | CCn1cc(C(=O)O)c(=O)c2cc(F)c(Nc3cccc(OC)c3)c([N+](=O)[O-])c21 [11b, 1-ethyl-6-fluoro-7-(3-methoxy-phenylamino)-8-nitro-4-oxo-1,4-dihydro-quinoline-3-carboxylic acid] | 79 µg/mL | 197 ± 38.3 µM | > 200 µg/mL | > 200 µg/mL | 23.3 µg/mL | 58 ± 9.12 µM | > 200 µg/mL | > 200 µg/mL | > 200 µg/mL |  |  | > 200 µg/mL | 
8 | CCn1cc(C(=O)O)c(=O)c2cc(F)c(Nc3ccccc3OC)c(N)c21 [12a, 8-amino-1-ethyl-6-fluoro-7-(2-methoxy-phenylamino)-4-oxo-1,4-dihydro-quinoline-3-carboxylic acid] | 9.45 µg/mL | 25.4 ± 3.92 µM | 373 µM and 138 µg/mL | 125 µM and 46.5 µg/mL | 7.79 µg/mL | 21 ± 0.62 µM | 142 µM and 52.6 µg/mL | > 200 µg/mL | 170 ± 15.1 µM | 63.2 µg/mL | 8.10 | 83.5 µM and 31 µg/mL | 
9 | COc1ccccc1Nc1c(F)cc2c(=O)c(C(=O)O)cn(C3CC3)c2c1N [4a, 8-amino-1-cyclopropyl-6-fluoro-7-(2-methoxy-phenylamino)-4-oxo-1,4-dihydro-quinoline-3-carboxylic acid] | 15.5 µg/mL | 40.4 ± 6.03 µM | 72.3 µM and 27.8 µg/mL | > 200 µg/mL | 16.9 µg/mL | 44 ± 3.88 µM | 113 µM and 43.4 µg/mL | 153 µM and 58.7 µg/mL | 140 ± 10.5 µM | 53.8 µg/mL |  | 95.8 µM and 36.8 µg/mL | Selectivity index SI (HELA) (PDL Fibroblasts): 3.46
10 | N.N.[Cl][Pt][Cl] [Cisplatin, cisplatin, reference compound] |  |  |  |  |  |  |  |  |  |  |  |  | IC50 (PDL Fibroblasts; [11]): 0.71 ± 0.13 µM; IC50 value PDL Fibroblasts (PDL Fibroblasts; value in brackets): 0.21 ± 0.04 µg/mL
11 | CCn1cc(C(=O)O)c(=O)c2cc(F)c3c(nnn3-c3cccc(OC)c3)c21 [13b, 9-ethyl-4-fluoro-3-(3-methoxy-phenyl)-6-oxo-6,9-dihydro-3H-[1,2, and 3] triazolo [4,5-h] quinoline-7-carboxylic acid] |  |  |  |  |  |  |  |  |  |  |  |  | Cytotoxicity IC50 value, HELA cell line (HELA cell line): 15.99 ± 1.35 µg/mL; IC50 (HELA cell line): 41.9 ± 3.55 µM; Cytotoxicity IC50 value, A375.S2 cell line (A375.S2 cell line): 38.96 ± 3.39 µg/mL; IC50 (A375.S2 cell line): 102 ± 8.88 µM; Cytotoxicity IC50 value, MCF7 cell line (MCF7 cell line): 159.18 ± 8.68 µg/mL; IC50 (MCF7 cell line): 417 ± 22.8 µM; Cytotoxicity IC50 value, K562 cell line (K562 cell line): 22.13 ± 0.85 µg/mL; IC50 (K562 cell line): 58 ± 2.22 µM; Cytotoxicity IC50 value, T47D cell line (T47D cell line; [12]): 44.68 ± 3.49 µg/mL; IC50 (T47D cell line; [13]): 117 ± 9.15 µM; Cytotoxicity IC50 value, A549 cell line (A549 cell line): 95.87 ± 9.20 µg/mL; IC50 (A549 cell line): 251 ± 24.1 µM; Selectivity index SI (HELA) (PDL Fibroblasts): 7.19; IC50 (PDL Fibroblasts; [11]): 332 ± 14.6 µM; IC50 value PDL Fibroblasts (PDL Fibroblasts; value in brackets): 126.55 ± 5.58 µg/mL (≈ 331 µM)
12 | CCn1cc(C(=O)O)c(=O)c2cc(F)c3c(nnn3-c3ccccc3OC)c21 [13a, 9-ethyl-4-fluoro-3-(2-methoxy-phenyl)-6-oxo-6,9-dihydro-3H-[1,2, and 3] triazolo [4,5-h] quinoline-7-carboxylic acid] |  |  |  |  |  |  |  |  |  |  | 40.01 |  | Cytotoxicity IC50 value, HELA cell line (HELA cell line): 20.06 ± 2.62 µg/mL; IC50 (HELA cell line): 52.6 ± 6.86 µM; Cytotoxicity IC50 value, A375.S2 cell line (A375.S2 cell line): 203.87 ± 4.80 µg/mL; IC50 (A375.S2 cell line): 535 ± 12.6 µM; Cytotoxicity IC50 value, K562 cell line (K562 cell line): 2.66 ± 0.49 µg/mL; IC50 (K562 cell line): 6.98 ± 1.28 µM; Cytotoxicity IC50 value, PANC 1 cell line (PANC 1 cell line): 118.30 ± 6.71 µg/mL; IC50 (PANC 1 cell line): 310 ± 17.6 µM; Cytotoxicity IC50 value, T47D cell line (T47D cell line; [12]): 21.93 ± 0.87 µg/mL; IC50 (T47D cell line; [13]): 57.5 ± 2.27 µM; Cytotoxicity IC50 value, A549 cell line (A549 cell line): 94.32 ± 1.44 µg/mL; IC50 (A549 cell line): 247 ± 3.78 µM; IC50 (PDL Fibroblasts; [11]): 276 ± 20.7 µM; IC50 value PDL Fibroblasts (PDL Fibroblasts; value in brackets): 105.13 ± 7.90 µg/mL (≈ 275 µM)
